Results reported in publication PMC10850145, “Hormonal steroids induce multidrug resistance and stress response genes in Neisseria gonorrhoeae by binding to MtrR” (Nature Communications, 2024).
Values joined by “and” are separate entries in the source; they are usually repeats but may differ in a detail not shown here. Identical values can stand only once. Like-named read-outs stand apart in the source and are kept apart here.

Test system: mtrC-lacZ expression
Format: cell-based, Neisseria gonorrhoeae
Conditions: for Miller units, Mean: mtrCDE, ΔmtrR, left block Plate-4; for β-galactosidase activity, Miller units (single replicate) / β-galactosidase activity, individual replicate: mtrR WT in cis; for β-galactosidase activity, individual replicate: single replicate values, second (right) block; for Miller units: single well; for mtrC-lacZ β-galactosidase activity, Mean: left block of sheet (mtrCDE)
[1] = second block of sheet (c39-c76), ΔmtrR + mtrR R176E in trans, 6.25 µM
[2] = second block of sheet (c39-c76), ΔmtrR + mtrR R176E in trans, 12.5 µM
[3] = second block of sheet (c39-c76), ΔmtrR + mtrR R176E in trans, 25 µM
[4] = second block of sheet (c39-c76), ΔmtrR + mtrR R176E in trans, 50 µM

For `C[C@]12CC[C@H]3[C@@H](CCC4=CC(=O)CC[C@@]43C)[C@@H]1CC[C@@H]2O` [Testosterone, testosterone], the “Miller units, Mean” value (testosterone 50 µM) was 284 Miller units, the “Miller units, Mean” value (testosterone 100 µM) was 369 Miller units and the “β-galactosidase activity, Miller units (single replicate)” value (“β-galactosidase activity, Miller units” below) (1 µM, first data set (c15-c36)) was 149 Miller units and 125 Miller units and 138 Miller units and 141 Miller units. For the same compound, the “β-galactosidase activity, individual replicate” value (6.25 µM hormone) was 103 Miller units and 88 Miller units, the “β-galactosidase activity, Miller units” value (6.25 µM, second data set (c53-c74)) was 73 Miller units and 58 Miller units and the “β-galactosidase activity, Miller units” value (10 µM, first data set (c15-c36)) was 251 Miller units and 213 Miller units and 245 Miller units and 230 Miller units. The “β-galactosidase activity, individual replicate” value (12.5 µM hormone) was 126 Miller units, the “β-galactosidase activity, Miller units” value (12.5 µM, second data set (c53-c74)) was 92 Miller units and 94 Miller units and the “β-galactosidase activity, individual replicate” value (25 µM hormone) was 144 Miller units and 138 Miller units. The “β-galactosidase activity, Miller units” value (25 µM, first data set (c15-c36)) was 283 Miller units and 251 Miller units and 242 Miller units and 281 Miller units, the “β-galactosidase activity, Miller units” value (25 µM, second data set (c53-c74)) was 129 Miller units and 111 Miller units and the “β-galactosidase activity, individual replicate” value (50 µM hormone) was 161 Miller units and 150 Miller units. For the same compound, the “β-galactosidase activity, Miller units” value (50 µM, first data set (c15-c36)) was 237 Miller units and 229 Miller units and 224 Miller units and 225 Miller units, the “β-galactosidase activity, Miller units” value (50 µM, second data set (c53-c74)) was 118 Miller units and 110 Miller units and the “β-galactosidase activity, Miller units” value (100 µM, first data set (c15-c36)) was 228 Miller units and 230 Miller units and 281 Miller units and 254 Miller units. For the same compound, the “β-galactosidase activity, Mean” value [1] was 60 Miller units, the “β-galactosidase activity, single replicate” value [1] was 66 Miller units and 62 Miller units and 61 Miller units and 50 Miller units and the “β-galactosidase activity, Mean” value [2] was 68 Miller units. For the same compound, the “β-galactosidase activity, single replicate” value [2] was 65 Miller units and 76 Miller units and 70 Miller units and 59 Miller units, the “β-galactosidase activity, Mean” value [3] was 80 Miller units and the “β-galactosidase activity, single replicate” value [3] was 70 Miller units and 77 Miller units and 92 Miller units and 80 Miller units. For the same compound, the “β-galactosidase activity, Mean” value [4] was 83 Miller units, the “β-galactosidase activity, single replicate” value [4] was 89 Miller units and 78 Miller units and 94 Miller units and 70 Miller units and the Miller units (plate rows 1-4, plate columns 1-6 (first strain), 6.25 µM hormone) was 96 Miller units and 59 Miller units and 65 Miller units and 57 Miller units. The Miller units (plate rows 1-4, plate columns 1-6 (first strain), 12.5 µM hormone) was 116 Miller units and 66 Miller units and 73 Miller units and 70 Miller units, the Miller units (plate rows 1-4, plate columns 1-6 (first strain), 25 µM hormone) was 132 Miller units and 102 Miller units and 83 Miller units and 75 Miller units and the Miller units (plate rows 1-4, plate columns 1-6 (first strain), 50 µM hormone) was 147 Miller units and 111 Miller units and 107 Miller units and 103 Miller units. The Miller units (plate rows 1-4, plate columns 7-12 (second strain), 6.25 µM hormone) was 119 Miller units and 100 Miller units and 89 Miller units and 76 Miller units, the Miller units (plate rows 1-4, plate columns 7-12 (second strain), 12.5 µM hormone) was 126 Miller units and 101 Miller units and 100 Miller units and 81 Miller units and the Miller units (plate rows 1-4, plate columns 7-12 (second strain), 25 µM hormone) was 155 Miller units and 122 Miller units and 93 Miller units and 79 Miller units. For the same compound, the Miller units (plate rows 1-4, plate columns 7-12 (second strain), 50 µM hormone) was 151 Miller units and 132 Miller units and 101 Miller units and 93 Miller units, the “β-galactosidase activity, mtrC-lacZ, Mean” value (strain WT (FA19/pLES94-mtrC), hormone 6.25 µM) was 141 Miller units and the “β-galactosidase activity, mtrC-lacZ, Mean” value (strain WT (FA19/pLES94-mtrC), hormone 12.5 µM) was 166 Miller units. For the same compound, the “β-galactosidase activity, mtrC-lacZ, Mean” value (strain WT (FA19/pLES94-mtrC), hormone 25 µM) was 178 Miller units, the “β-galactosidase activity, mtrC-lacZ, Mean” value (strain WT (FA19/pLES94-mtrC), hormone 50 µM) was 195 Miller units and the “mtrC-lacZ β-galactosidase activity, Mean” value (strain WT, 1 µM hormone) was 138 Miller units. The “β-galactosidase activity, Mean” value (strain WT, 6.25 µM hormone, second (right) untitled block of sheet Figure S10 (mtrC)) was 81 Miller units, the “mtrC-lacZ β-galactosidase activity, Mean” value (strain WT, 10 µM hormone) was 235 Miller units and the “mtrC-lacZ β-galactosidase activity, Mean” value (strain WT, 25 µM hormone) was 264 Miller units. The “β-galactosidase activity, Mean” value (strain WT, 25 µM hormone, second (right) untitled block of sheet Figure S10 (mtrC)) was 130 Miller units, the “mtrC-lacZ β-galactosidase activity, Mean” value (strain WT, 50 µM hormone) was 229 Miller units and the “β-galactosidase activity, Mean” value (strain WT, 50 µM hormone, second (right) untitled block of sheet Figure S10 (mtrC)) was 134 Miller units. The “mtrC-lacZ β-galactosidase activity, Mean” value (strain WT, 100 µM hormone) was 248 Miller units, the “activation of mtrC” value (strain producing MtrR R176E) was “significantly less activation” and the “β-galactosidase activity, mtrC-lacZ, Mean” value (strain ΔmtrR (FA19 ∆mtrR/pLES94-mtrC), hormone 6.25 µM) was 265 Miller units. For the same compound, the “β-galactosidase activity, mtrC-lacZ, Mean” value (strain ΔmtrR (FA19 ∆mtrR/pLES94-mtrC), hormone 12.5 µM) was 244 Miller units, the “β-galactosidase activity, mtrC-lacZ, Mean” value (strain ΔmtrR (FA19 ∆mtrR/pLES94-mtrC), hormone 25 µM) was 276 Miller units and the “β-galactosidase activity, mtrC-lacZ, Mean” value (strain ΔmtrR (FA19 ∆mtrR/pLES94-mtrC), hormone 50 µM) was 272 Miller units. The “β-galactosidase activity, mtrC-lacZ, Mean” value (strain ΔmtrR + mtrR D171A (pGCC3-mtrR D171A), hormone 6.25 µM) was 170 Miller units, the “β-galactosidase activity, mtrC-lacZ, Mean” value (strain ΔmtrR + mtrR D171A (pGCC3-mtrR D171A), hormone 12.5 µM) was 175 Miller units and the “β-galactosidase activity, mtrC-lacZ, Mean” value (strain ΔmtrR + mtrR D171A (pGCC3-mtrR D171A), hormone 25 µM) was 170 Miller units. For the same compound, the “β-galactosidase activity, mtrC-lacZ, Mean” value (strain ΔmtrR + mtrR D171A (pGCC3-mtrR D171A), hormone 50 µM) was 162 Miller units, the “mtrC-lacZ β-galactosidase activity, Mean” value (strain ΔmtrR + mtrR R176E, 1 µM hormone) was 178 Miller units and the “β-galactosidase activity, Mean” value (strain ΔmtrR + mtrR R176E, 6.25 µM hormone, second (right) untitled block of sheet Figure S10 (mtrC)) was 60 Miller units. The “mtrC-lacZ β-galactosidase activity, Mean” value (strain ΔmtrR + mtrR R176E, 10 µM hormone) was 206 Miller units, the “β-galactosidase activity, Mean” value (strain ΔmtrR + mtrR R176E, 12.5 µM hormone, second (right) untitled block of sheet Figure S10 (mtrC)) was 68 Miller units and the “β-galactosidase activity, Mean” value (strain ΔmtrR + mtrR R176E, 25 µM hormone, second (right) untitled block of sheet Figure S10 (mtrC)) was 80 Miller units.
